From patent US20150174202A1, “Methods and Compositions for Modulating Beta Cell Proliferation” (The Board of Trustees of the Leland Stanford Junior …, priority 2011, published 2015)
Entries after “also recorded” stand apart in the source; their conditions may differ.

How the values were obtained:
Ezh2 = assay: Ezh2/Ezh1 expression in cultured mouse islets (real-time RT-PCR, western blot); format: cell-based
Experimental: Mouse pancreatic islets were purified as described in Chen et al. (2009) Genes Dev. 23, 975-985 and used immediately for assays described in the text. To study Ezh2 induction in cultured islets exposed to mitogens, freshly isolated islets from 2-3-week old, and 7-12-month old C57BL/6 mice were recovered and equilibrated overnight at 37° C., 5% CO2 in RPMI-1640 medium supplemented with 0.5% fetal bovine serum (FBS), 0.2% bovine albumin (BSA) and 2% penicillin/streptomycin. Afterwards, islets were distributed into microplates or dishes, and treated with recombinant human PDGF-AA, prolactin or insulin (Sigma), with or without addition of pharmacological inhibitors, including Sunitinib (Selleck), […]0126 (Sigma), LY294002 (Sigma) or U-73122 (Sigma) at the indicated concentrations. Two days later, islets were harvested for RNA or protein extraction for real-time RTPCR or western blot analyses. To detect phosphorylation of Pdgfr-α by western blot, islets were exposed to PDGF-AA (with or without indicated pharmacological inhibitors) for 90 min before islet harvesting and protein extraction. To detect in vitro islet β-cell proliferation stimulated by PDGF-AA, a final concentration of 50 μM BrdU was introduced into each culture dish 24 h before harvest, followed by standard histological processing. Immunostaining of BrdU and insulin was performed on processed islets, and β-cell proliferation rate was determined by quantifying percentage of insulin+ cells with BrdU+. Culture experiments of human islets were performed using a similar procedure described later. Total RNA from freshly isolated or cultured islets after indicated treatments were purified using the Absolutely RNA miniprep purification kit (Stratagene) according to the manufacturer's instructions. RNA concentration was measured with a RiboGreen RNA quantification assay (Invitrogen). One-step quantitative RT-PCR was performed and analysed using an ABI Prism 7300 detection system (Applied Biosystems) with TaqMan one-step RTPCR Master Mix Reagents and appropriate amounts (10-100 ng) of islet total RNA as the template. We calculated the ratio of mRNA for the gene of interest to the amount of internal control mRNA of peptidylprolyl isomerase A (cyclophilin A, PPIA), and then normalized the ratio for each gene to its median. For western blots, total islet protein was prepared from freshly isolated or cultured islets after indicated treatments as described in Chen et al. (2009) Genes Dev. 23, 975-985. Equal amounts of protein were resolved on SDS-PAGE and transferred to polyvinylidine fluoride membranes (Amersham Pharmacia) for immunoblotting with specific antibodies, including rabbit polyclonal anti-human Ezh2 (1:1,000, Millipore), rabbit polyclonal anti-phospho-PDGFR-α ([…]) (1:1,000, Santa Cruz Biotechnologies), rabbit monoclonal anti-PDGFR-α (1:1,000, Cell Signaling), mouse monoclonal anti-β-actin (1:4,000, Sigma), rabbit monoclonal anti-Akt (1:1,500, Cell Signaling), rabbit monoclonal anti-phospho-Ark ([…]) (1:1,000, Cell Signaling), rabbit monoclonal anti-p44/42 MAPK (Erk1/2) (1:1,500, Cell Signaling), rabbit monoclonal anti-phospho-p44/42 MAPK (Erk1/2) […]) (1:1,000, Cell Signaling), rabbit monoclonal anti-PLCγ1 (1:1,000, Cell Signaling) and rabbit monoclonal anti-phospho-PLCγ1 ([…]) (1:1,000, Cell Signaling). Signal was visualized using ECL detection (Amersham Pharmacia) on Kodak film after further incubation with HRP-conjugated secondary antibodies. For phospho-PDGFR-α ([…]) and PDGFR-α detection, signal was amplified by incubating the membrane with biotinylated anti-rabbit-IgG (1:2,000), followed with an incubation with HRP-avidin (1:2,000, Vector Laboratories) and then ECL visualization.

Pdgfr-α = molecular target: T1, Pdgfr-α (Mus musculus, UniProt P26618); assay: Phosphorylation of Pdgfr-α in cultured mouse islets (western blot); format: cell-based; conditions: 3-week-old mouse islets exposed to PDGF-AA
T1 construct: endogenous in cells; host or cells: primary pancreatic islets from C57BL/6 mice (3-week-old wild-type islets), cultured ex vivo
T1 sequence (P26618 25-1089): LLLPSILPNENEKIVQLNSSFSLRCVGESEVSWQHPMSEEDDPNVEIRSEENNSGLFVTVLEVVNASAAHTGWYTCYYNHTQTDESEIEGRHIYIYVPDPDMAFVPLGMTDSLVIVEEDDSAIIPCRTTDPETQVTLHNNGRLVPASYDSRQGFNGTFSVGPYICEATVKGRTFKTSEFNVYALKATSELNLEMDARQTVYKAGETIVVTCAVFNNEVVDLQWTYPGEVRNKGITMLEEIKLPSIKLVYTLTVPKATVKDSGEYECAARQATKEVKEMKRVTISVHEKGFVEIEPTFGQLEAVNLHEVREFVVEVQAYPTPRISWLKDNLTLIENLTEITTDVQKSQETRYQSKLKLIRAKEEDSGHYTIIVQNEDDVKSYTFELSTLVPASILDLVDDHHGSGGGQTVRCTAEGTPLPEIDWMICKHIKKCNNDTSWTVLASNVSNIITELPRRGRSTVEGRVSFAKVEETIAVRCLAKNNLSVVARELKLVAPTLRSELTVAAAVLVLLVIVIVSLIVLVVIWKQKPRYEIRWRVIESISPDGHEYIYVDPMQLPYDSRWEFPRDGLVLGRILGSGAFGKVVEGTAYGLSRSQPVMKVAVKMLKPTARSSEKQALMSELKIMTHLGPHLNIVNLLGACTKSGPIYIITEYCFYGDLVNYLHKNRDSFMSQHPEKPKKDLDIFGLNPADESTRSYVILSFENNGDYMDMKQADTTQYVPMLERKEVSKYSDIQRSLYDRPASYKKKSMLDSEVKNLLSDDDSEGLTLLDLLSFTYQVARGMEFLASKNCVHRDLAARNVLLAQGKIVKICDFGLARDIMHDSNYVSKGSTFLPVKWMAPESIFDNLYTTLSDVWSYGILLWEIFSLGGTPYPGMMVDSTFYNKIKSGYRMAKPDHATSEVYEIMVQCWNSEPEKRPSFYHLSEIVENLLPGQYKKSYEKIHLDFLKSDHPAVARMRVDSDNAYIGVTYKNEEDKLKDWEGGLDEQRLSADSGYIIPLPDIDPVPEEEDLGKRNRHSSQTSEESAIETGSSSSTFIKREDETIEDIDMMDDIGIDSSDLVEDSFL
Experimental: Mouse pancreatic islets were purified as described in Chen et al. (2009) Genes Dev. 23, 975-985 and used immediately for assays described in the text. To study Ezh2 induction in cultured islets exposed to mitogens, freshly isolated islets from 2-3-week old, and 7-12-month old C57BL/6 mice were recovered and equilibrated overnight at 37° C., 5% CO2 in RPMI-1640 medium supplemented with 0.5% fetal bovine serum (FBS), 0.2% bovine albumin (BSA) and 2% penicillin/streptomycin. Afterwards, islets were distributed into microplates or dishes, and treated with recombinant human PDGF-AA, prolactin or insulin (Sigma), with or without addition of pharmacological inhibitors, including Sunitinib (Selleck), Vargatef (Selleck), U0126 (Sigma), LY294002 (Sigma) or U-73122 (Sigma) at the indicated concentrations. Two days later, islets were harvested for RNA or protein extraction for real-time RTPCR or western blot analyses. To detect phosphorylation of Pdgfr-α by western blot, islets were exposed to PDGF-AA (with or without indicated pharmacological inhibitors) for 90 min before islet harvesting and protein extraction. […] Immunostaining of BrdU and insulin was performed on processed islets, and β-cell proliferation rate was determined by quantifying percentage of insulin+ cells with BrdU+. […]

For “PDGF-AA: recombinant human PDGF-AA, a homodimer of PDGF alpha polypeptides”, the “Ezh2 mRNA and protein levels” value (Ezh2; 3-week-old (juvenile) mouse islets, 2 days exposure) was “increased; also recorded: induces”, the Ezh1 expression (Ezh2; 3-week-old mouse islets, 2 days exposure) was “but not Ezh1 expression” and the “Ezh2 mRNA and protein levels” value (Ezh2; 7- or 9-month-old adult mouse islets exposed to PDGF-AA) was “not significantly increased”. The phospho-Pdgfr-α levels (Pdgfr-α) was “increased”.
